Laboratory results taken from patent US8969516B2, “Method of hydrolysis of peptide bond” (priority 2006, dated 2015).

Test: MALDI-TOF screening of Ni^2+ dependent hydrolysis in a combinatorial peptide library
Type: physicochemical
Conditions: Ni^2+ 2 mM, pH 8.2, 10 mM Tris, score=24/tm
Method in brief: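 The screen used 1 mM peptide mixtures in 10 mM Tris, pH 8.2, with 2 mM Ni2+ at two temperatures, 37 °C and 45 °C. Product appearance and substrate decline were monitored visually by MALDI-TOF over 8 h. Scores for X and Z were then summed by row and column to rank substitutions.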

[1] = CH3CO-Gly-Ala-Ser-X-His-Z-Lys-Phe-Leu-NH2 library, 37° C.
[2] = CH3CO-Gly-Ala-Ser-X-His-Z-Lys-Phe-Leu-NH2 library, 45° C.
[3] = CH3CO-Gly-Ala-Thr-X-His-Z-Lys-Phe-Leu-NH2 library, 37° C.
[4] = CH3CO-Gly-Ala-Thr-X-His-Z-Lys-Phe-Leu-NH2 library, 45° C.

Substance | hydrolysis score from MALDI-TOF screening [1] | hydrolysis score from MALDI-TOF screening [2] | hydrolysis score from MALDI-TOF screening [3] | hydrolysis score from MALDI-TOF screening [4]
Ac-GASWHSKFL-NH2 [SWHS] | 0 (a score of 0 if no trace of the product of hydrolysis was seen after 8 hours of incubation) | 0 (a score of 0 if no trace of the product of hydrolysis was seen after 8 hours of incubation) | – | –
Ac-GASKHFKFL-NH2 [SKHF] | 4 (a score of 4 for detection at 6 hours) | 4 (a score of 4 for detection at 6 hours) | – | –
Ac-GASWHAKFL-NH2 [SWHA] | 0 (a score of 0 if no trace of the product of hydrolysis was seen after 8 hours of incubation) | 3 (a score of 3 for detection at 8 hours) | – | –
Ac-GATWHAKFL-NH2 [TWHA] | – | – | 0 (a score of 0 if no trace of the product of hydrolysis was seen after 8 hours of incubation) | 0 (a score of 0 if no trace of the product of hydrolysis was seen after 8 hours of incubation)
Ac-GATMHYKFL-NH2 [TMHY] | – | – | 0 (a score of 0 if no trace of the product of hydrolysis was seen after 8 hours of incubation) | 0 (a score of 0 if no trace of the product of hydrolysis was seen after 8 hours of incubation)
Ac-GASQHPKFL-NH2 [SQHP] | 0 (a score of 0 if no trace of the product of hydrolysis was seen after 8 hours of incubation) | 0 (a score of 0 if no trace of the product of hydrolysis was seen after 8 hours of incubation) | – | –
Ac-GASTHVKFL-NH2 [STHV] | 0 (a score of 0 if no trace of the product of hydrolysis was seen after 8 hours of incubation) | 6 (a score of 6 for detection at 4 hours) | – | –
Ac-GATIHQKFL-NH2 [TIHQ] | – | – | 0 (a score of 0 if no trace of the product of hydrolysis was seen after 8 hours of incubation) | 0 (a score of 0 if no trace of the product of hydrolysis was seen after 8 hours of incubation)
Ac-GASMHQKFL-NH2 [SMHQ] | 0 (a score of 0 if no trace of the product of hydrolysis was seen after 8 hours of incubation) | 0 (a score of 0 if no trace of the product of hydrolysis was seen after 8 hours of incubation) | – | –
Ac-GATAHIKFL-NH2 [TAHI] | – | – | 0 (a score of 0 if no trace of the product of hydrolysis was seen after 8 hours of incubation) | 0 (a score of 0 if no trace of the product of hydrolysis was seen after 8 hours of incubation)
Ac-GASIHRKFL-NH2 [SIHR] | 3 (a score of 3 for detection at 8 hours) | 3 (a score of 3 for detection at 8 hours) | – | –
Ac-GASWHWKFL-NH2 [SWHW] | 4 (a score of 4 for detection at 6 hours) | 6 (a score of 6 for detection at 4 hours) | – | –
Ac-GASTHIKFL-NH2 [STHI] | 4 (a score of 4 for detection at 6 hours) | 6 (a score of 6 for detection at 4 hours) | – | –
Ac-GASMHMKFL-NH2 [SMHM] | 3 (a score of 3 for detection at 8 hours) | 3 (a score of 3 for detection at 8 hours) | – | –
Ac-GASIHVKFL-NH2 [SIHV] | 3 (a score of 3 for detection at 8 hours) | 3 (a score of 3 for detection at 8 hours) | – | –
Ac-GATSHTKFL-NH2 [TSHT] | – | – | 0 (a score of 0 if no trace of the product of hydrolysis was seen after 8 hours of incubation) | 0 (a score of 0 if no trace of the product of hydrolysis was seen after 8 hours of incubation)
Ac-GASGHRKFL-NH2 [SGHR] | 3 (a score of 3 for detection at 8 hours) | 3 (a score of 3 for detection at 8 hours) | – | –
Ac-GATHHNKFL-NH2 [THHN] | – | – | 0 (a score of 0 if no trace of the product of hydrolysis was seen after 8 hours of incubation) | 0 (a score of 0 if no trace of the product of hydrolysis was seen after 8 hours of incubation)
Ac-GASYHDKFL-NH2 [SYHD] | 0 (a score of 0 if no trace of the product of hydrolysis was seen after 8 hours of incubation) | 0 (a score of 0 if no trace of the product of hydrolysis was seen after 8 hours of incubation) | – | –
Ac-GASRHSKFL-NH2 [SRHS] | 3 (a score of 3 for detection at 8 hours) | 4 (a score of 4 for detection at 6 hours) | – | –
Ac-GASVHAKFL-NH2 [SVHA] | 0 (a score of 0 if no trace of the product of hydrolysis was seen after 8 hours of incubation) | 0 (a score of 0 if no trace of the product of hydrolysis was seen after 8 hours of incubation) | – | –

Substance | hydrolysis score from MALDI-TOF screening [1] | hydrolysis score from MALDI-TOF screening [2] | hydrolysis score from MALDI-TOF screening [3] | hydrolysis score from MALDI-TOF screening [4]
Ac-GATYHDKFL-NH2 [TYHD] | – | – | 0 (a score of 0 if no trace of the product of hydrolysis was seen after 8 hours of incubation) | 0 (a score of 0 if no trace of the product of hydrolysis was seen after 8 hours of incubation)
Ac-GATVHVKFL-NH2 [TVHV] | – | – | 0 (a score of 0 if no trace of the product of hydrolysis was seen after 8 hours of incubation) | 0 (a score of 0 if no trace of the product of hydrolysis was seen after 8 hours of incubation)
Ac-GASFHNKFL-NH2 [SFHN] | 0 (a score of 0 if no trace of the product of hydrolysis was seen after 8 hours of incubation) | 0 (a score of 0 if no trace of the product of hydrolysis was seen after 8 hours of incubation) | – | –
Ac-GATHHTKFL-NH2 [THHT] | – | – | 0 (a score of 0 if no trace of the product of hydrolysis was seen after 8 hours of incubation) | 4 (a score of 4 for detection at 6 hours)
Ac-GATHHIKFL-NH2 [THHI] | – | – | 3 (a score of 3 for detection at 8 hours) | 12 (a score of 12, if it was seen to be partially hydrolysed at 2 hours)
Ac-GATMHLKFL-NH2 [TMHL] | – | – | 0 (a score of 0 if no trace of the product of hydrolysis was seen after 8 hours of incubation) | 0 (a score of 0 if no trace of the product of hydrolysis was seen after 8 hours of incubation)
Ac-GASLHWKFL-NH2 [SLHW] | 3 (a score of 3 for detection at 8 hours) | 4 (a score of 4 for detection at 6 hours) | – | –
Ac-GATWHIKFL-NH2 [TWHI] | – | – | 0 (a score of 0 if no trace of the product of hydrolysis was seen after 8 hours of incubation) | 3 (a score of 3 for detection at 8 hours)
Ac-GASRHVKFL-NH2 [SRHV] | 6 (a score of 6 for detection at 4 hours) | 12 (a score of 12, if it was seen to be partially hydrolysed at 2 hours) | – | –
Ac-GASFHLKFL-NH2 [SFHL] | 4 (a score of 4 for detection at 6 hours) | 6 (a score of 6 for detection at 4 hours) | – | –
Ac-GASVHLKFL-NH2 [SVHL] | 3 (a score of 3 for detection at 8 hours) | 3 (a score of 3 for detection at 8 hours) | – | –
Ac-GASIHHKFL-NH2 [SIHH] | 3 (a score of 3 for detection at 8 hours) | 3 (a score of 3 for detection at 8 hours) | – | –
Ac-GATFHAKFL-NH2 [TFHA] | – | – | 0 (a score of 0 if no trace of the product of hydrolysis was seen after 8 hours of incubation) | 0 (a score of 0 if no trace of the product of hydrolysis was seen after 8 hours of incubation)
Ac-GASHHIKFL-NH2 [SHHI] | 6 (a score of 6 for detection at 4 hours) | 6 (a score of 6 for detection at 4 hours) | – | –
Ac-GASLHQKFL-NH2 [SLHQ] | 0 (a score of 0 if no trace of the product of hydrolysis was seen after 8 hours of incubation) | 0 (a score of 0 if no trace of the product of hydrolysis was seen after 8 hours of incubation) | – | –
Ac-GATKHPKFL-NH2 [TKHP] | – | – | 0 (a score of 0 if no trace of the product of hydrolysis was seen after 8 hours of incubation) | 0 (a score of 0 if no trace of the product of hydrolysis was seen after 8 hours of incubation)
Ac-GASSHDKFL-NH2 [SSHD] | 0 (a score of 0 if no trace of the product of hydrolysis was seen after 8 hours of incubation) | 3 (a score of 3 for detection at 8 hours) | – | –
Ac-GASSHEKFL-NH2 [SSHE] | 0 (a score of 0 if no trace of the product of hydrolysis was seen after 8 hours of incubation) | 3 (a score of 3 for detection at 8 hours) | – | –
Ac-GATRHDKFL-NH2 [TRHD] | – | – | 0 (a score of 0 if no trace of the product of hydrolysis was seen after 8 hours of incubation) | 0 (a score of 0 if no trace of the product of hydrolysis was seen after 8 hours of incubation)
Ac-GATWHMKFL-NH2 [TWHM] | – | – | 0 (a score of 0 if no trace of the product of hydrolysis was seen after 8 hours of incubation) | 3 (a score of 3 for detection at 8 hours)
